Measured values from patent US10047151B2, “Methods for the treatment of cancer and inflammatory diseases using cereblon as a predictor” (Celgene Corporation, priority 2011, dated 2018).

Key:
Type in all cases: cell-based
H929 cells = experiment: Cell cycle progression (cells in S phase) in siRNA-transfected H929 cells; conditions: 72 h treatment
Protocol: The effect of CRBN in H929 cells was also evaluated. H929 cells were transfected with mock, negative control siRNA and CRBN-siRNA-7 for 24, 48, 72 and 96 h. Cells were treated 24 h after transfection with DMSO (0.1%), pomalidomide (1 μM), lenalidomide (10 μM) or 3-(5-amino-2-methyl-4-oxo-4H-quinazolin-3-yl)-piperidine-2,6-dione (“Compound B”) for 1, 2, 3 days and the effect on cell cycle and proliferation investigated. Lenalidomide, pomalidomide and Compound B induced a delay of cell cycle progression, measured as the decrease of the number of cells in S phase, in control mock and negative control siRNA-transfected cells after 72 h treatment (FIG. 2C). Knockdown of CRBN markedly abrogated immunomodulatory drugs-induced delay in cell cycle progression in H929 cells (FIG. 2C) from of 50 to 4% for lenalidomide, from 70 to 15% for pomalidomide, and from 65 to 22% for Compound B.

[1] = tested on: CARD11-BCL-10-MALT1 (CBM) complex; experiment: MALT1-induced BCL-10 cleavage (CBM complex activity) in ABC-DLBCL cells
Protocol: Cells were treated with test compounds or 0.1% DMSO for indicated times. Following incubation, cells were collected, pelleted with centrifugation, and immediately lysed in 0.1 ml lysis buffer containing 10 mM Tris-HCl pH 8.0, 10 mM EDTA, 150 mM NaCl, 1% NP-40, 0.5% SDS, 1 mM DTT, 1 mM Na3VO4, plus Complete protease inhibitor cocktail (Roche Applied Science, Indianapolis, Ind.), then processed with a Qiashredder™ (Qiagen, Valencia, Calif.) for 1 minute and frozen on dry ice. Samples were diluted with 6×SDS sample buffer and then boiled for 5 min. Approximately 30 μl of this mixture was loaded per lane on a Criterion Precast 4-12% Tris-HCl gel (Bio-Rad, Hercules, Calif.), electrophoresed, and transferred to nitrocellulose membranes (Bio-Rad, Hercules, Calif.). The membranes were blocked for 1 hour at room temperature using blocking buffer (LI-COR Biosciences, Lincoln, Nebr.), then incubated overnight at 4° C. with antibodies against either BCL-10, IRF4, CRBN or β-actin. Membranes were washed and incubated with IRDye Secondary Antibodies (1:30,000) for 1 hour at room temperature. A standard protocol was then followed for signal detection, using the Odyssey® Infrared Imaging System and software (LI-COR Biosciences, Lincoln, Nebr.).
This mutation has been reported to cause constitutive formation and activation of CARD11-BCL-10-MALT1 (CBM) complex of BCR signaling pathway, leading to NF-κB overactivation in lymphoma cells. See Lenz, G., et al., Science 2008, 319: 1676-9; Thome, M. et al., Cold Spring Harb Perspect Biol. 2010; 2: a003004. To investigate the potential involvement of CBM complex in lenalidomide-induced IRF4 inhibition in these cells, the effect of lenalidomide on the complex activity was examined by measuring MALT1 paracaspase enzymatic activity. MALT1 is activated upon association with BCL-10 and CARD11 to form active CBM complex and then cleaves its binding partners, such as BCL-10.

U266 = experiment: Ubiscan ubiquitinated peptide quantification in U266
From the text: The effects of lenalidomide and pomalidomide on protein ubiquination were investigated using CST Ubiscan technology. Treated samples were sent to Cell Signaling Technology for ubiquinated peptide enrichment and quantification by LC/MS/MS. […] In the MG132 combo, more ubiquinated peptides are observed (compared with their controls). […] These peptides correspond to 176 unique proteins. Top few groups are: nucleosome, chromatin, protein-DNA complex assembly, Histone H2A. Among the 176 proteins, we found five proteins that belong to “ubiquitin-protein ligase activity” category, they are MDM2, HERC2, UBE2D3 (only by pomalidomide), UBE2N (lenalidomide only), UBE2M (both). Results for hits categorized by conditions are shown in FIGS. 8 & 9 (without MG132) and FIGS. 10 & 11 (with MG132).

p21^WAF-1 = experiment: p21WAF-1 mRNA and protein levels in U266B1 cells; conditions: U266B1, control mock and negative control siRNA-transfected cells; pomalidomide 1 μM, lenalidomide 10 μM
Protocol: To further investigate the effects of CRBN on the cell cycle arrest induced by drugs we used RT-PCR and Western blot analysis to measure the levels of key cell cycle and apoptotic regulators. U266B1 cells were transfected with mock, negative control siRNA, CRBN-siRNA-7 and CRBN-siRNA-11 for 24, 48, 72 and 96 h (FIG. 3A). Cells were treated 24 h after transfection with DMSO (0.1%), pomalidomide (1 μM) and lenalidomide (10 μM) for 1, 2, 3 days and the effect on mRNA and protein levels of the cyclin-dependent kinase (CDK) inhibitor p21^WAF-1 were evaluated. It has been shown that lenalidomide- and pomalidomide-induced cell cycle arrest is dependent on up-regulation of p21^WAF-1 in […]. […] However, knockdown of CRBN prevents the induction of p21^WAF-1 indicating the successful abrogation of G1 arrest and renewal of S phase progression (FIGS. 3C & 3D).

U266B1 cells = experiment: Cell cycle progression (cells in S phase) in siRNA-transfected U266B1 cells; conditions: control mock and negative control siRNA-transfected cells; average of 3 days of treatment; pomalidomide 1 μM, lenalidomide 10 μM
Protocol: Drugs such as lenalidomide and pomalidomide have direct anti-proliferative activity against MM cells by inducing cell cycle arrest in G1 phase, followed by a decrease in viability. To study the role of CRBN in lenalidomide and other drugs anti-proliferative activities, H929 and U266B1 cells, two sensitive myeloma lines, were transfected with CRBN-siRNAs or control siRNAs for 24, 48, 72 and 96 hours. Cells were treated 24 h after transfection with DMSO (0.1%), pomalidomide (1 μM) and lenalidomide (10 μM) for 1, 2, 3 days to evaluated the compound effect on CRBN protein, mRNA expression and the effect on cell cycle and proliferation. […] CRBN down regulation was confirmed by RT-PCR and Western blot using the CRBN70 antibody (FIG. 1).
Knockdown of CRBN markedly abrogated the lenalidomide and pomalidomide-induced delay in cell cycle progression in U266B1 cells. Id.

## Nc1cccc2c1CN(C1CCC(=O)NC1=O)C2=O (centres unmarked) [lenalidomide, 3-(4-amino-1-oxo-1,3-dihydro-isoindol-2-yl)-piperidine-2,6-dione]
H929 cells; H929 cells with knockdown of CRBN
  delay in cell cycle progression (decrease of the number of cells in S phase): 4%
H929 cells; control mock and negative control siRNA-transfected H929 cells
  delay in cell cycle progression (decrease of the number of cells in S phase): 50%
[1]; OCI-Ly3 cells
  BCL-10 cleavage: neither the PKCβ inhibitor nor lenalidomide had any effect
[1]; sensitive ABC-DLBCL cell lines OCI-Ly10 and U2932
  MALT1-induced BCL-10 cleavage: inhibited MALT1-induced BCL-10 cleavage in a concentration-dependent manner
U266
  Ub-proteins increased in abundance: IKZF3, RPL19, PCM1 and NEDD8
  proteins decreased in abundance: GNB2L1 and HNRNPR
p21^WAF-1
  p21 level: up-regulated
U266B1 cells
  delay of cell cycle progression, measured as the decrease of the number of cells in S phase: 40%
